# Data reported in article PMC2776349, “Asymmetric Deactivation of HIV-1 gp41 following Fusion Inhibitor Binding” (PLoS Pathogens, 2009).
# Ends that are not written are not given here.
# Key:
# HIV-1HXB2 (gp41) = conditions: 1HXB2 (gp41, 48 h)
# [1] = system: EnvG547D/I548T and EnvV549E; type: cell-based; conditions: versus wild type Env
# HIV-1 = conditions: compared with wild type C37; ref KMK and MJR, manuscript in preparation; cited from earlier work
# HIV-1HXB2 = type: cell-based; conditions: low (HOS-CD4-CCR5) versus high (HOS-CD4-CXCR4) CXCR4, HIV-1HXB2
# [2] = target: fluorescein-labeled 5-Helix (Human immunodeficiency virus type 1 group M subtype B, UniProt P04578, C598G/DEL582-596/DEL601-623/N624G); type: binding, HIV-1HXB2
Sequence,IC50 (HIV-1HXB2 (gp41)) [nM],further results
GGHTTDMEWDREANNYTSLIHSLIEESQNQQEKNEQELLGHHHHHH [W628D/I635A],97 ± 8.4,
GGHTTDMEWDREINNYTSLAHSLIEESQNQQEKNEQELLGHHHHHH [W628D/I642A],65 ± 9.8,
GGHTTWMEWDREANNYTSLIHSLIEESQNQQEKNEQELLGHHHHHH [Variant I635A],5.7 ± 1.6,
GGHTTWMEWDREDNNYTSLIHSLIEESQNQQEKNEQELLGHHHHHH [Variant I635D],3100 ± 350,
GGHTTWMEWDREINKYISLIHSLIEESQNQQEKNEQELLGHHHHHH [N637K/T639I (KYI)],0.96 ± 0.1,"impact of G547D/I548T and V549E substitutions on potency [1]: minimal impact; resistance development (HIV-1): takes much longer to achieve and requires more escape mutations than resistance to wild type C37; increase in potency on lowering CXCR4 levels (HIV-1HXB2): 3.5 fold; kon [2]: 2.4±0.1 x10^7 M-1s-1; τoff (time constant for dissociation) ([2]; C37 variants, reciprocal of koff): 11000 min"
GGHTTWMEWDREINKYTSLIHSLIEESQNQQEKNEQELLGHHHHHH [N637K (KYT)],1.65 ± 0.05,
GGHTTWMEWDREINNYISLIHSLIEESQNQQEKNEQELLGHHHHHH [T639I (NYI)],1.7 ± 0.1,
GGHTTWMEWDREINNYTSLAHSLIEESQNQQEKNEQELLGHHHHHH [Variant I642A],7 ± 1.5,
GGHTTWMEWDREINNYTSLDHSLIEESQNQQEKNEQELLGHHHHHH [Variant I642D],13000 ± 2100,
GGHTTWMEWDREINNYTSLIHSAIEESQNQQEKNEQELLGHHHHHH [Variant L645A],3.9 ± 0.7,
GGHTTWMEWDREINNYTSLIHSDIEESQNQQEKNEQELLGHHHHHH [Variant L645D],630 ± 120,
GGHTTWMEWDREINNYTSLIHSLIEEAQNQQEKNEQELLGHHHHHH [Variant S649A],1.6 ± 0.41,
GGHTTWMEWDREINNYTSLIHSLIEEDQNQQEKNEQELLGHHHHHH [Variant S649D],2300 ± 170,
GGHTTWMEWDREINNYTSLIHSLIEESQNAQEKNEQELLGHHHHHH [Variant Q652A],3.5 ± 0.81,
GGHTTWMEWDREINNYTSLIHSLIEESQNDQEKNEQELLGHHHHHH [Variant Q652D],53 ± 0.98,
GGHTTWMEWDREINNYTSLIHSLIEESQNQQEKAEQELLGHHHHHH [Variant N656A],30 ± 4.2,
GGHTTWMEWDREINNYTSLIHSLIEESQNQQEKDEQELLGHHHHHH [Variant N656D],100 ± 8.9,
GGHTTWMEWDREINNYTSLIHSLIEESQNQQEKNEQALLGHHHHHH [Variant E659A],1.2 ± 0.13,
